Among the data in patent US9856279B2 (AGIOS PHARMACEUTICALS, INC, priority 2011, dated 2018) are IC50 values, retold here.

The structures appear in SMILES notation. Where only a bound is given, the exact number is not on record here.

The term IC50 denotes the concentration at which inhibition is half-maximal.

The target in one test is IDH1 R132H (Homo sapiens, UniProt O75874, R132H). The experiment in a line: Assay for IDH1 R132H inhibitors (NADPH/aKG, resazurin detection). Type of test: biochemical. Conditions: enzyme assay of Example 12; read-out: IDH1R132H IC50. The method in brief:
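Read-out is resorufin fluorescence (Ex544/Em590) 5 min after adding a 30 μM resazurin detection mix. Before that, mutant enzyme (0.2 μg/ml in its mix) ran 50 min at room temperature with compound, 8 uM NADPH and 2 mM aKG (mix levels) in Tris pH 7.5 with NaCl, MgCl2, BSA.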

Another test has as its system HT1080 cells. The experiment in a line: Cellular assay for IDH1m inhibitors: inhibition of 2-HG production (LC-MS, 48 hours) in HT1080 cells. Type of test: cell-based. Conditions: Homo sapiens, HT-1080; inhibition of 2-HG production, HT1080 cells; read-out: HT1080 IC50. The method in brief:
(§1)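 HT1080 or U87MG cells were seeded at 5000/well in DMEM with 10% FBS, incubated overnight, then treated with compounds (0.2% DMSO final) for 48 h. Medium 2-HG was quantified by LC-MS, and IC50 was taken as the concentration reducing 2-HG by 50% versus DMSO control.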

The subject of another test is U87MG cells. The experiment in a line: Cellular assay for IDH1m inhibitors: inhibition of 2-HG production (LC-MS, 48 hours) in U87MG cells. Type of test: cell-based. Conditions: Homo sapiens, U-87 MG, inhibition of 2-HG production, U87R132H cells; read-out: U87R132H IC50. In short, it runs like this: as §1

Sequence of IDH1 R132H (O75874 whole entry R132H): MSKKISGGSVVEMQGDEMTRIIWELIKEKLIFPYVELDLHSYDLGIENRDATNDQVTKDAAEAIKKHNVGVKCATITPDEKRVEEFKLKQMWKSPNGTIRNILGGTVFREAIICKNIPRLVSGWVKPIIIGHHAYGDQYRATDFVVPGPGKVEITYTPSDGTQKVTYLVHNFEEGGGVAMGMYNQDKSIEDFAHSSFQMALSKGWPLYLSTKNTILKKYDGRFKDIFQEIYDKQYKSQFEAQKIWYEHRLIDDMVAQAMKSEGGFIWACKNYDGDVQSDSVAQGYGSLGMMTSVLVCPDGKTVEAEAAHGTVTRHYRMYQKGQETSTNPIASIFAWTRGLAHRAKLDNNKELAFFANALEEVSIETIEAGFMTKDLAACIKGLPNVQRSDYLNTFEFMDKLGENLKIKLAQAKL

`COCCC(=O)N1CCN(c2nc(C3CC3)c(-c3cccc4[nH]ccc34)cc2C#N)C[C@H]1C` [Compound 287, (R)-6-cyclopropyl-5-(1H-indol-4-yl)-2-(4-(3-methoxypropanoyl)-3-methylpiperazin-1-yl)nicotinonitrile]: the IC50 on IDH1 R132H was below 500 nM; with HT1080 cells it was 1000 to 10000 nM; in the test on U87MG cells it was 1000 to 10000 nM.
Consider `C=Cc1cc(-c2c(C3CC3)nc(N3CCN(C(=O)CCO)[C@H](C)C3)c(C#N)c2C)ccn1` [Compound 654, (R)-2-cyclopropyl-6-(4-(3-hydroxypropanoyl)-3-methylpiperazin-1-yl)-4-methyl-2′-vinyl-[3,4′-bipyridine]-5-carbonitrile], for which the IC50 on IDH1 R132H, with HT1080 cells and in the test with U87MG cells was below 500 nM each time.
With `C=Cc1nc(-c2cc(C#N)c(N3CCN(C(=O)CCO)[C@H](C4CC4)C3)nc2C2CC2)c2ccccc2n1` [Compound 670, (R)-6-cyclopropyl-2-(3-cyclopropyl-4-(3-hydroxypropanoyl)piperazin-1-yl)-5-(2-vinylquinazolin-4-yl)nicotinonitrile], the IC50 on IDH1 R132H, in the test with HT1080 cells and in the test with U87MG cells was below 500 nM each time.
On to `COCCC(=O)N1CCN(c2nc(C3CC3)c(Oc3cc(Cl)ncn3)cc2C#N)C[C@H]1C` [Compound 666, (R)-5-((6-chloropyrimidin-4-yl)oxy)-6-cyclopropyl-2-(4-(3-methoxypropanoyl)-3-methylpiperazin-1-yl)nicotinonitrile], for which the IC50 at IDH1 R132H, in the test with HT1080 cells and in the test on U87MG cells was below 500 nM each time.
With `C=Cc1cc(-c2cc(C#N)c(N3CCN(C(=O)CCO)[C@H](C4CC4)C3)nc2C2CC2)nc(N)n1` [Compound 719, (R)-5-(2-amino-6-vinylpyrimidin-4-yl)-6-cyclopropyl-2-(3-cyclopropyl-4-(3-hydroxypropanoyl)piperazin-1-yl)nicotinonitrile], the IC50 on IDH1 R132H, in the test on HT1080 cells and with U87MG cells was below 500 nM throughout.
`CCC(=O)Nc1cccc(-c2cc(C#N)c(N3CCN(C(=O)CCOC)[C@H](C)C3)nc2C2CC2)c1` [Compound 424, (R)—N-(3-(5-cyano-2-cyclopropyl-6-(4-(3-methoxypropanoyl)-3-methylpiperazin-1-yl)pyridin-3-yl)phenyl)propionamide]: the IC50 on IDH1 R132H was below 500 nM; in the test on HT1080 cells it was 500 to 1000 nM; in the test on U87MG cells it was 500 to 1000 nM.
With `N#Cc1cc(-c2cccc3cnccc23)c(C2CC2)nc1N1CCN(C(=O)c2ccoc2)[C@H](C2CC2)C1` [Compound 488, (R)-6-cyclopropyl-2-(3-cyclopropyl-4-(furan-3-carbonyl)piperazin-1-yl)-5-(isoquinolin-5-yl)nicotinonitrile], the IC50 at IDH1 R132H is below 500 nM; with HT1080 cells, below 500 nM; in the test on U87MG cells, 500 to 1000 nM.
On to `COCCC(=O)N1CCN(c2nc(C3CC3)c(-c3cccc(NC(=O)[C@@H](C)Cl)c3)cc2C#N)C[C@H]1C` [Compound 462, (R)-2-chloro-N-(3-(5-cyano-2-cyclopropyl-6-((R)-4-(3-methoxypropanoyl)-3-methylpiperazin-1-yl)pyridin-3-yl)phenyl)propanamide], for which the IC50 was 500 to 1000 nM at IDH1 R132H, 1000 to 10000 nM with HT1080 cells and 1000 to 10000 nM in the test with U87MG cells.
Consider `C=CC(=O)N1CCC=C(c2cc(C#N)c(N3CCN(C(=O)CCO)[C@H](C4CC4)C3)nc2C2CC2)C1` [Compound 727, (R)-5-(1-acryloyl-1,2,5,6-tetrahydropyridin-3-yl)-6-cyclopropyl-2-(3-cyclopropyl-4-(3-hydroxypropanoyl)piperazin-1-yl)nicotinonitrile], for which the IC50 at IDH1 R132H, in the test on HT1080 cells and in the test on U87MG cells was below 500 nM in each case.
`COCCC(=O)N1CCN(c2nc(C3CC3)c(-c3cncc4ccccc34)c(C)c2C#N)C[C@H]1C` [Compound 408, 6-cyclopropyl-5-(isoquinolin-4-yl)-2-((R)-4-(3-methoxypropanoyl)-3-methylpiperazin-1-yl)-4-methylnicotinonitrile]: the IC50 is below 500 nM on IDH1 R132H, 500 to 1000 nM in the test on HT1080 cells and below 500 nM with U87MG cells.
As for `C=Cc1cc(-c2c(C3CC3)nc(N3CCN(C(=O)CCOC)[C@H](C4CC4)C3)c(C#N)c2C)c2ccncc2n1` [Compound 746, 6-cyclopropyl-2-((R)-3-cyclopropyl-4-(3-methoxypropanoyl)piperazin-1-yl)-4-methyl-5-(2-vinyl-1,7-naphthyridin-4-yl)nicotinonitrile], the IC50 at IDH1 R132H, in the test on HT1080 cells and in the test on U87MG cells was below 500 nM each time.
`C=Cc1cc(Nc2cc(C#N)c(N3CCN(C(=O)CCO)[C@H](C)C3)nc2C2CC2)c2ccncc2n1` [Compound 698, (R)-6-cyclopropyl-2-(4-(3-hydroxypropanoyl)-3-methylpiperazin-1-yl)-5-((2-vinyl-1,7-naphthyridin-4-yl)amino)nicotinonitrile]: the IC50 at IDH1 R132H, in the test on HT1080 cells and in the test with U87MG cells was below 500 nM throughout.
